Laboratory results published in US7655688B2, “Fused cyclic succinimide compounds and analogs thereof, modulators of nuclear hormone receptor function” (Bristol-Myers Squibb Company, priority 2001, dated 2010).
Like-named read-outs stand apart in the source and are kept apart here.

Key:
AR [1] = molecular target: T1, AR (Rattus norvegicus, UniProt P15207); conditions: castrated rats
T1 sequence (P15207 1-902): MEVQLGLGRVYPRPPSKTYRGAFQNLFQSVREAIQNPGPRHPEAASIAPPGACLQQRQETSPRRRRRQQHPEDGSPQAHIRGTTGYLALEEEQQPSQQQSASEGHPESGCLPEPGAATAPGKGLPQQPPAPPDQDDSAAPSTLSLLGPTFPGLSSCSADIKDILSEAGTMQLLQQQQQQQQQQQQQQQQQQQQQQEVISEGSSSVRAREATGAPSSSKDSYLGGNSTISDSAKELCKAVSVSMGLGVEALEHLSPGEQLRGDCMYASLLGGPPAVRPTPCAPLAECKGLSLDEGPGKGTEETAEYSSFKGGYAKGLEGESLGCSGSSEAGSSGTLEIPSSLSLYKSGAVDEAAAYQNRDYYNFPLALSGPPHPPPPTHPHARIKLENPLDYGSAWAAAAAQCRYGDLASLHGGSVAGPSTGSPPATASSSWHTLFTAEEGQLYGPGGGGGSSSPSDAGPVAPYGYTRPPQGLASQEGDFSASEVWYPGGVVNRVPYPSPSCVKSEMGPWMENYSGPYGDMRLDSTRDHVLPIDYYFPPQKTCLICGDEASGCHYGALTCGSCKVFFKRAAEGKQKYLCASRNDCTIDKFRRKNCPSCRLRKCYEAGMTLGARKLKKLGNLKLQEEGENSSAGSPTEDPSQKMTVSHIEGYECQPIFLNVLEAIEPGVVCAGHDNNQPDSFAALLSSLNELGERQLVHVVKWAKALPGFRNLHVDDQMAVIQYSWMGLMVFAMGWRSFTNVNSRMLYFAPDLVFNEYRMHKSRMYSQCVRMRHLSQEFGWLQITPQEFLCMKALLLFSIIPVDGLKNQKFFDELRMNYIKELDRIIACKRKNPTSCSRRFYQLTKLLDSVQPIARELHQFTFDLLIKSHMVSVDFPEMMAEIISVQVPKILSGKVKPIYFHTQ
From the text: The activity of compounds of the present invention as AR agonists was investigated in an immature male rat model, a recognized test of anabolic effects in muscle and sustaining effects in sex organs for a given compound, as described in L. G. Hershberger et al., Proc. Soc. […] Nem.
The basis of this assay lies in the well-defined action of androgenic agents on the maintenance and growth of muscle tissues and sexual accessory organs in animals and man. […] J. Anat. […] Ital. Biol. Sper. […] II. […] Ital. Biol. Sper. […] As described above, the effects of androgens on maintenance of male sexual accessory organs, such as the prostate and seminal vesicles, is well described. Castration results in rapid involution and atrophy of the prostate and seminal vesicles. This effect can be reversed by exogenous addition of androgens. Since both the levator ani muscle and the male sex organs are the tissues most responsive to the effects of androgenic agents, this model is used to determine the androgen dependent reversal of atrophy in the levator ani muscle and the sex accessory organs in immature castrated rats. Sexually mature rats (200-250 g, 6-8 weeks-old, Sprague-Dawley, Harlan) were acquired castrated from the vendor (Taconic). The rats were divided into groups and treated daily for 7 to 14 days with one of the following: • 1. Control vehicle • 2. […]

AR [2] = molecular target: T1, AR
[3] = test system: GR induced AP-1 transrepression; experiment: In vitro assay to measure GR induced AP-1 transrepression (luciferase reporter, A549 cells); format: cell-based; conditions: concentration of ≦10 μM; 10 ng/ml PMA; typical value
Description: The AP-1 assay is a cell based luciferase reporter assay. A549 cells, which contain endogenous glucocorticoid receptor, were stably transfected with an AP-1 DNA binding site attached to the luciferase gene. Cells are then grown in RPMI+10% fetal calf serum (charcoal-treated)+Penicillin/Streptomycin with 0.5 mg/ml geneticin. Cells are plated the day before the assay at approximately 40000 cells/well. On assay day, the media is removed by aspiration and 20 μl assay buffer (RPMI without phenol red+10% FCS (charcoal-treated)+Pen/Strep) is added to each well. At this point either 20 μl assay buffer (control experiments), the compounds of the present invention (“test compounds”) (dissolved in DMSO and added at varying concentrations) or dexamethasome (100 nM in DMSO, positive control) are added to each well. The plates are then pre-incubated for 15 minutes at 37° C., followed by stimulation of the cells with 10 ng/ml PMA. The plates are then incubated for 7 hrs at 37° C. after which 40 μl luciferase substrate reagent is added to each well. Activity is measured by analysis in a luminometer as compared to control experiments treated with buffer or dexamethasome. […] The control, dexamethasone, at a concentration of ≦10 μM typically suppresses activity by 65%.

Compound | EC50 (increase in organ weight) (AR [1]; dosing for 3 days) [mg] | potency relative to free T (AR [1]; organ weight) | ED80 (organ weight increase) (AR [2]; immature castrated rat model) [mg] | EC50 (increase in organ weight) (AR [2]; immature castrated rats, dosing for 3 days) [mg] | potency relative to free T (AR [2]; immature castrated rats, organ weight) | suppression of activity (% inhibition of the reporter system vs buffer control with PMA alone) [3] [%]
CCC(=O)O[C@H]1CC[C@H]2[C@@H]3CCC4=CC(=O)CC[C@]4(C)[C@H]3CC[C@]12C [TP, Testosterone Propionate] | ~0.03 | 10-30 fold | 0.1 | ~0.03 | 10-30 fold | –
C[C@@H]1C[C@H]2[C@@H]3CCC4=CC(=O)C=C[C@]4(C)[C@@]3(F)[C@@H](O)C[C@]2(C)[C@@]1(O)C(=O)CO [dexamethasone] | – | – | – | – | – | 65
